Results on 21 molecules are retold here after patent US20250197387A1, “BCL-XL DEGRADERS AND USES THEREOF” (Kymera Therapeutics, Inc., priority 2021, published 2025).

Holding throughout (type): cell-based
One assay deals with T1, BCL-XL (Homo sapiens, UniProt Q07817).
T1 construct: endogenous in cells; host or cells: MOLT-4
Description: Bcl-xL ELISA degradation in MOLT-4 cells, 6 h. Particulars: for DC50: read-out: Bcl-xL ELISA in MOLT-4 degradation 6 h: Mean external-Abs DC50. The method, then: The letter codes for BCL-XL DC50 include: A (<0.01 μM); B (0.01-0.1 μM); C (>[…]); D (>0.5-1.0 μM); and E (>1.0 μM). The letter codes for Dmax % include A (>75%); B (50 to 75%); C (<50%).

A further assay concerns MOLT-4 cells. Kind of assay: CTG (CellTiter-Glo) cell viability assay, MOLT-4. Particulars: Homo sapiens, 3 day incubation, read-out: CTG Cell Viability Assay - MOLT-4 3 day: Average external-IC50. The method in brief:
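Luminescence from CellTiter-Glo, read after 3 days of compound exposure at 37 °C, gave viability; IC50 values came from three-parameter logistic curves. Cells were plated at 10,000 per well and dosed over nine 1:3 steps topping at 10 μM.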

The subject of another assay is Caki-2 cells. Description: CTG (CellTiter-Glo) cell viability assay, Caki-2. Particulars: Homo sapiens, 72 h, 3 day incubation, read-out: CTG Chempartner - Caki-2 3 day: Average external-IC50. The protocol:
Compound-mediated viability effect on MOLT-4 and Caki-2 was quantitatively determined using the CellTiter-Glo® Luminescent Cell Viability Assay kit from Promega (Catalog number G7570) following manufacturer's recommended procedures. Briefly, MOLT-4 and Caki-2 cells were seeded into 384 well plates (Grenier Bio-One, Catalog number 781080) with a density of 10,000 cells per well. Compounds were then added to the assay plate with final top concentration of 10 μM and 1:3 dilution series with total of 9 doses. The final DMSO concentration is normalized to 0.2%. The assay plates were incubated at 37° C., for 3 days under 5% CO2. Then the assay plate was equilibrated at room temperature for 10 minutes. To determine cell viability, 30 uL CellTiter Glo reagent was added to each well and the assay plate was centrifuged at 1000 rpm for 30 second, incubated at room temperature for 10 min, and analyzed by detecting the luminescence using a multimode plate reader (EnVision 2105, PerkinElmer). The data was then analyzed by software Prism 7.0 from GraphPad and the dose response curves are fit using a three-parameter logistic equation to calculate IC50.
The letter codes for MOLT-4 IC50 include: A (<0.1 μM); B (0.1-1.0 μM); C (>1.0-3.0 μM); and D (>3.0 μM). The letter codes for Caki-2 IC50 include: A (<0.1 μM); B (0.1-1.0 μM); C (>1.0-10.0 μM); and D (>10.0 μM).

Each structure is given as a SMILES string. Like-named read-outs stand apart in the source and are kept apart here. A value given as a limit tells only on which side of the number the result lay.

T1 sequence (Q07817 whole entry): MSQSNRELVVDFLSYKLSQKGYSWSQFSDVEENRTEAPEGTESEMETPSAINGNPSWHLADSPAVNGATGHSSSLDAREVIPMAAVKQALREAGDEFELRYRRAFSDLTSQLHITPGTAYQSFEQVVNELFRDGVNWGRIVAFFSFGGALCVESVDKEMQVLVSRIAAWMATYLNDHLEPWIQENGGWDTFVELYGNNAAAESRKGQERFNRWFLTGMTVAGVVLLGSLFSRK

On to `Cc1ncsc1-c1ccc([C@H](C)NC(=O)[C@@H]2C[C@@H](O)CN2C(=O)[C@@H](NC(=O)N2CC(Cc3ccc(S(=O)(=O)NC(=O)c4nc(N5CCc6cccc(C(=O)Nc7nc8ccccc8s7)c6C5)ccc4-c4cnn(CC5CCCCC5)c4C)cc3)C2)C(C)(C)C)cc1` [I-346], for which, at BCL-XL, the Dmax was above 75% and the DC50 is 10 to 100 nM. For the same molecule, in the assay on MOLT-4 cells (MOLT-4, 72 h), the IC50 was in the range of 100 to 1000 nM. For the same molecule, in the assay with Caki-2 cells, the half-maximal inhibitory concentration (IC50) was above 10000 nM.
For `Cc1ncsc1-c1ccc([C@H](C)NC(=O)[C@@H]2C[C@@H](O)CN2C(=O)[C@@H](NC(=O)C2CN(c3ccc(S(=O)(=O)NC(=O)c4nc(N5CCc6cccc(C(=O)Nc7nc8ccccc8s7)c6C5)ccc4-c4cnn(CC5CCCCC5)c4C)cc3)C2)C(C)(C)C)cc1` [I-343], at BCL-XL, the greatest degradation seen (Dmax) is above 75% and the 50% degradation concentration (DC50) fell in the range of 10 to 100 nM. For the same molecule, the IC50 in the assay on MOLT-4 cells (MOLT-4, 72 h) was below 100 nM. Moreover, the IC50 with Caki-2 cells lay in the range of 1000 to 10000 nM.
The corresponding values for `Cc1ncsc1-c1ccc([C@H](C)NC(=O)[C@@H]2C[C@@H](O)CN2C(=O)[C@H](c2cc(OC3CCN(CCNC(=O)c4nc(N5CCc6cccc(C(=O)Nc7nc8ccccc8s7)c6C5)ccc4-c4cnn(CC5CCCCC5)c4C)CC3)no2)C(C)C)cc1` [I-292] are 50 to 75%, 100 to 500 nM, 100 to 1000 nM and 1000 to 10000 nM.
For `Cc1cc(N(C)c2ccc(-c3cnn(CC45CC6CC(CC(C6)C4)C5)c3C)c(C(=O)NS(=O)(=O)CCN(C)CCC(=O)N[C@H](C(=O)N3C[C@H](O)C[C@H]3C(=O)N[C@@H](C)c3ccc(-c4scnc4C)cc3)C(C)(C)C)n2)nnc1Nc1nc2ccccc2s1` [I-428], at BCL-XL, the maximal degradation (Dmax) is above 75% and the DC50 lay within 10 to 100 nM. In the assay with MOLT-4 cells (MOLT-4, 72 h), the half-inhibitory concentration (IC50) was below 100 nM. Also, the IC50 in the assay on Caki-2 cells is above 10000 nM.
For `Cc1ncsc1-c1ccc(CNC(=O)[C@@H]2C[C@@H](O)CN2C(=O)[C@@H](NC(=O)COc2ccc(S(=O)(=O)NC(=O)c3nc(N4CCc5cccc(C(=O)Nc6nc7ccccc7s6)c5C4)ccc3-c3cnn(CC4CCCCC4)c3C)cc2)C(C)(C)C)cc1` [I-327], at BCL-XL, the Dmax is above 75%. In addition, at BCL-XL, the DC50 fell in the range of 10 to 100 nM. Also, the IC50 with MOLT-4 cells (MOLT-4, 72 h) was below 100 nM; in the assay on Caki-2 cells, 1000 to 10000 nM.
Turning to `C#Cc1ccc([C@H](CO)NC(=O)[C@@H]2C[C@@H](O)CN2C(=O)[C@@H](NC(=O)CCNCCS(=O)(=O)NC(=O)c2nc(N3CCc4cccc(C(=O)Nc5nc6cccnc6s5)c4C3)ccc2-c2cnn(CC3CCCCC3)c2C)C(C)(C)C)cc1` [I-378], at BCL-XL, the Dmax was above 75% and the 50% degradation concentration (DC50) is 10 to 100 nM. Also, the IC50 in the assay with MOLT-4 cells (MOLT-4, 72 h) was in the range of 100 to 1000 nM. For the same molecule, the concentration for half-maximal inhibition (IC50) in the assay with Caki-2 cells is above 10000 nM.
On the same counts, the results for `C#Cc1ccc([C@H](C)NC(=O)[C@@H]2C[C@@H](O)CN2C(=O)[C@@H](NC(=O)CCCCS(=O)(=O)NC(=O)c2nc(N(C)c3cc(C)c(Nc4nc5ccccc5s4)nn3)ccc2-c2cnn(CC34CC5CC(CC(C5)C3)C4)c2C)C(C)(C)C)cc1` [I-368] are above 75%, 10 to 100 nM, below 100 nM and above 10000 nM.
As for `C#Cc1ccc([C@H](C)NC(=O)[C@@H]2C[C@@H](O)CN2C(=O)[C@@H](NC(=O)CCCCCS(=O)(=O)NC(=O)c2nc(N3CCc4cccc(C(=O)Nc5nc6cccnc6s5)c4C3)ccc2-c2cnn(CC3CCCCC3)c2C)C(C)(C)C)c(O)c1` [I-479], the Dmax at BCL-XL is above 75%. Besides, on BCL-XL, the half-maximal degradation concentration (DC50) was below 10 nM. For the same molecule, the half-inhibitory concentration (IC50) was below 100 nM in the assay with MOLT-4 cells (MOLT-4, 72 h) and above 10000 nM in the assay with Caki-2 cells.
In turn, `Cc1ncsc1-c1ccc(CNC(=O)[C@@H]2C[C@@H](O)CN2C(=O)[C@@H](NC(=O)CCCc2cc(F)cc(S(=O)(=O)NC(=O)c3nc(N4CCc5cccc(C(=O)Nc6nc7ccccc7s6)c5C4)ccc3-c3cnn(CC4CCCCC4)c3C)c2)C(C)(C)C)cc1` [I-374] registered a Dmax at BCL-XL above 75%. Further, the 50% degradation concentration (DC50) on BCL-XL is below 10 nM. Further, the IC50 in the assay with MOLT-4 cells (MOLT-4, 72 h) is below 100 nM; in the assay on Caki-2 cells, 1000 to 10000 nM.
The corresponding values for `Cc1c(-c2ccc(N3CCc4cccc(C(=O)Nc5nc6ccccc6s5)c4C3)nc2C(=O)NS(=O)(=O)CCCCCc2ccc3c(c2)n(C)c(=O)n3C2CCC(=O)NC2=O)cnn1CC1CCCCC1` (stereo not shown) [I-425] are above 75%, below 10 nM, below 100 nM and 1000 to 10000 nM.
With `Cc1ncsc1-c1ccc([C@H](C)NC(=O)[C@@H]2C[C@@H](O)CN2C(=O)[C@@H](NC(=O)C2CCN(c3ccc(S(=O)(=O)NC(=O)c4nc(N5CCc6cccc(C(=O)Nc7nc8ccccc8s7)c6C5)ccc4-c4cnn(CC5CCCCC5)c4C)cc3CO)CC2)C(C)(C)C)cc1` [I-316], the Dmax on BCL-XL fell in the range of 50 to 75%. Also, the DC50 on BCL-XL lay in the range of 100 to 500 nM. For the same molecule, the concentration for half-maximal inhibition (IC50) was 100 to 1000 nM in the assay with MOLT-4 cells (MOLT-4, 72 h) and above 10000 nM in the assay on Caki-2 cells.
On the same counts, the results for `C#Cc1ccc(CNC(=O)[C@@H]2C[C@@H](O)CN2C(=O)[C@@H](NC(=O)CCCCCS(=O)(=O)NC(=O)c2nc(N3CCc4cccc(C(=O)Nc5nc6cccnc6s5)c4C3)ccc2-c2cnn(CC3CCCCC3)c2C)C(C)(C)C)cc1` [I-352] are above 75%, below 10 nM, below 100 nM and above 10000 nM.
On to `Cc1ncsc1-c1ccc(CNC(=O)[C@@H]2C[C@@H](O)CN2C(=O)[C@@H](NC(=O)C2CN(CCCS(=O)(=O)NC(=O)c3nc(N4CCc5cccc(C(=O)Nc6nc7ccccc7s6)c5C4)ccc3-c3cnn(CC4CCCCC4)c3C)C2)C(C)(C)C)cc1` [I-421], for which the Dmax at BCL-XL is above 75%. Besides, the DC50 at BCL-XL was in the range of 10 to 100 nM. Moreover, the concentration for half-maximal inhibition (IC50) is 1000 to 3000 nM in the assay with MOLT-4 cells (MOLT-4, 72 h) and above 10000 nM in the assay with Caki-2 cells.
As to `C#Cc1ccc(CNC(=O)[C@@H]2C[C@@H](O)CN2C(=O)[C@H](NC(=O)CCCCCS(=O)(=O)NC(=O)c2nc(N3CCc4cccc(C(=O)Nc5nc6ccccc6s5)c4C3)ccc2-c2cnn(CC3CCCCC3)c2C)C(C)(C)CCOP(=O)(O)O)cc1` [I-418], on BCL-XL, the maximal degradation (Dmax) was above 75% and the DC50 was in the range of 100 to 500 nM. Further, the IC50 in the assay with MOLT-4 cells (MOLT-4, 72 h) lay within 100 to 1000 nM. In addition, the IC50 with Caki-2 cells is above 10000 nM.
Regarding `C#Cc1ccc(CNC(=O)[C@@H]2C[C@@H](O)CN2C(=O)[C@@H](NC(=O)CCCCCS(=O)(=O)NC(=O)c2nc(N(C)c3cc(C)c(Nc4nc5ccccc5s4)nn3)ccc2-c2cnn(CC(C)(C)C)c2C)C(C)(C)C)cc1` [I-472], the half-maximal inhibitory concentration (IC50) in the assay with MOLT-4 cells (MOLT-4, 72 h) was 100 to 1000 nM; in the assay with Caki-2 cells it was above 10000 nM.
On to `C#Cc1ccc(CNC(=O)[C@@H]2C[C@@H](O)CN2C(=O)[C@@H](NC(=O)CCCCCS(=O)(=O)NC(=O)c2nc(N3CCc4cccc(C(=O)Nc5nc6cccnc6s5)c4C3)ccc2-c2cnn(CC(C)(C)C)c2C)C(C)(C)C)cc1` [I-468], for which the half-maximal inhibitory concentration (IC50) in the assay on MOLT-4 cells (MOLT-4, 72 h) was 1000 to 3000 nM; with Caki-2 cells, above 10000 nM.
Take `Cc1ccc(NC(=O)c2cccc3c2CN(c2ccc(-c4cnn(CC5CCCCC5)c4C)c(C(=O)NS(=O)(=O)CCCCCC(=O)N[C@H](C(=O)N4C[C@H](O)C[C@H]4C(=O)N[C@@H](C)c4ccc(-c5scnc5C)cc4)C(C)(C)C)n2)CC3)nc1` [I-458]: the half-maximal inhibitory concentration (IC50) in the assay on MOLT-4 cells (MOLT-4, 72 h) was above 3000 nM; with Caki-2 cells, above 10000 nM.
Take `Cc1ncsc1-c1ccc([C@H](C)NC(=O)[C@@H]2C[C@@H](OC(=O)CCP(=O)(O)O)CN2C(=O)[C@@H](NC(=O)CCCS(=O)(=O)NC(=O)c2nc(N3CCc4cccc(C(=O)Nc5nc6ccccc6s5)c4C3)ccc2-c2cnn(CC3CCCCC3)c2C)C(C)(C)C)cc1` [I-411]: the IC50 was 100 to 1000 nM with MOLT-4 cells (72 h) and above 10000 nM in the assay with Caki-2 cells.
On to `C#Cc1ccc([C@H](C)NC(=O)[C@@H]2C[C@@H](O)CN2C(=O)[C@@H](NC(=O)CCCCCS(=O)(=O)NC(=O)c2nc(N3CCc4cccc(C(=O)Nc5nc6cccnc6s5)c4C3)ccc2-c2cnn(CC(C)(C)C)c2C)C(C)(C)C)cc1` [I-469], for which the IC50 in the assay with MOLT-4 cells (MOLT-4, 72 h) is 100 to 1000 nM; in the assay with Caki-2 cells, above 10000 nM.
On the same counts, the results for `C#Cc1ccc(CNC(=O)[C@@H]2C[C@@H](O)CN2C(=O)[C@@H](NC(=O)CCCS(=O)(=O)NC(=O)c2nc(N3CCc4cccc(C(=O)Nc5nc6cccnc6s5)c4C3)ccc2-c2cnn(CC(C)C)c2C)C(C)(C)C)cc1` [I-412] are above 3000 nM and above 10000 nM.
With `Cc1cc(N(C)c2ccc(-c3cnn(CC45CC6CC(CC(C6)C4)C5)c3C)c(C(=O)NS(=O)(=O)CCCCCC(=O)N[C@H](C(=O)N3C[C@H](O)C[C@H]3C(=O)N[C@@H](C)c3ccc(-c4scnc4C)cc3)C(C)(C)C)n2)nnc1Nc1nc2cccnc2s1` [I-439], the IC50 is 100 to 1000 nM in the assay with MOLT-4 cells (MOLT-4, 72 h) and above 10000 nM in the assay with Caki-2 cells.
